From publication PMC8305194, “Structural, Mechanistic, and Functional Insights into an Arthrobacter nicotinovorans Molybdenum Hydroxylase Involved in Nicotine Degradation” (Molecules, 2021)

How the values were obtained:
[1] = target: T1, Kdh holoenzyme (KdhL, KdhM, KdhS); 6-hydroxypseudooxynicotine 2-oxidoreductase; ketone dehydrogenase (Paenarthrobacter nicotinovorans, UniProt Q933N0); assay: X-ray crystal structure, […] Å; format: binding; settings: co-purified cofactor, MCD site in KdhL
T1 construct: gene kdhC; kdhLMS co-expressed from pART2-kdhLMS in A. nicotinovorans pAO1; Ni-NTA (tag not described) and Superdex 200; KdhL 87 kDa, KdhM 287 residues, KdhS 160 residues; heterotrimer, dimer of heterotrimers in crystal; with 6-hydroxypseudooxynicotine dehydrogenase complex subunit alpha; 6-hydroxypseudooxynicotine dehydrogenase complex subunit beta
T1 sequence (Q933N0 1-794): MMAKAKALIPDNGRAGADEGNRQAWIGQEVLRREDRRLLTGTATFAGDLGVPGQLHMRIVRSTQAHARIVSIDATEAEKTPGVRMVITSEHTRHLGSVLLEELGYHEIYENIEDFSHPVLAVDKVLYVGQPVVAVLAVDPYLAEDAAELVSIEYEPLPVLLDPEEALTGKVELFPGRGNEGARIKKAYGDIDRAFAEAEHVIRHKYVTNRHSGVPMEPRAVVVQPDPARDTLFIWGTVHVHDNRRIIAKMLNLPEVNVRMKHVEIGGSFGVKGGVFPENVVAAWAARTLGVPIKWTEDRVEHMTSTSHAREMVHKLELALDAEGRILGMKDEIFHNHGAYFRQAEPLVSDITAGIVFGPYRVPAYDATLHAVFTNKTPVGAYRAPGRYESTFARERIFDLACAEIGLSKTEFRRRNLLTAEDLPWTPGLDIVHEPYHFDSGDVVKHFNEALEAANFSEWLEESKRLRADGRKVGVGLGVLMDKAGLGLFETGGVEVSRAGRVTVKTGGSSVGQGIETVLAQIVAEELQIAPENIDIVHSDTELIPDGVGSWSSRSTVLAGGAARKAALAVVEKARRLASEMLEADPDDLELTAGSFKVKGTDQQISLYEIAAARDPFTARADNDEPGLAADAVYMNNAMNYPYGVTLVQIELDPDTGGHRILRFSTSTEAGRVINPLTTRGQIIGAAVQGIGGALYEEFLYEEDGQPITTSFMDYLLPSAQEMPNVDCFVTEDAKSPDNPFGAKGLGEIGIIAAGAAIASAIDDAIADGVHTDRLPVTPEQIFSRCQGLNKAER
T1 sequence (O87681 1-296 partner): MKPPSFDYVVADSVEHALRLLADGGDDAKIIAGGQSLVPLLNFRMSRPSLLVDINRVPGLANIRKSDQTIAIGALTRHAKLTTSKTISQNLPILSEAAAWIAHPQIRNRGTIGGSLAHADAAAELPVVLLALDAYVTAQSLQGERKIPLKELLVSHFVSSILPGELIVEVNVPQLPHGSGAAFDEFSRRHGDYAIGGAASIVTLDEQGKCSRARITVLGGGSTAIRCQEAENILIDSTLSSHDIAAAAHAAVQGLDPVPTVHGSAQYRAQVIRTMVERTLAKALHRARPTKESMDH
T1 sequence (O87682 2-160 partner): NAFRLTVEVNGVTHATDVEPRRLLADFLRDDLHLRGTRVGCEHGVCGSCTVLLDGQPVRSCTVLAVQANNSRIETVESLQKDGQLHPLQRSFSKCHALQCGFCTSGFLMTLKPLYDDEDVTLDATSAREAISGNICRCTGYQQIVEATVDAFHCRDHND

[2] = target: T2, Kdh holoenzyme, FAD site in KdhM (Paenarthrobacter nicotinovorans, UniProt O87681); assay: X-ray crystal structure, […] Å; format: binding; settings: co-purified cofactor
T2 construct: gene kdhA; same holoenzyme as P1; KdhM 287 residues, 32 kDa, holds FAD; with 6-hydroxypseudooxynicotine dehydrogenase complex subunit gamma; 6-hydroxypseudooxynicotine dehydrogenase complex subunit beta
T2 sequence (O87681 1-296): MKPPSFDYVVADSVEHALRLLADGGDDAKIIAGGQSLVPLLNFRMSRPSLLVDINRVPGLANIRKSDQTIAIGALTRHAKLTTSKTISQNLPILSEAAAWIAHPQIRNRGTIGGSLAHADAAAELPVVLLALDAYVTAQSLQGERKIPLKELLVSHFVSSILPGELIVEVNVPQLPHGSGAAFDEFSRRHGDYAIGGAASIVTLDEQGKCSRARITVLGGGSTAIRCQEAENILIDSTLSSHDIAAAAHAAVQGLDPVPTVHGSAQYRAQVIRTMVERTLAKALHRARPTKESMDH
T2 sequence (Q933N0 1-794 partner): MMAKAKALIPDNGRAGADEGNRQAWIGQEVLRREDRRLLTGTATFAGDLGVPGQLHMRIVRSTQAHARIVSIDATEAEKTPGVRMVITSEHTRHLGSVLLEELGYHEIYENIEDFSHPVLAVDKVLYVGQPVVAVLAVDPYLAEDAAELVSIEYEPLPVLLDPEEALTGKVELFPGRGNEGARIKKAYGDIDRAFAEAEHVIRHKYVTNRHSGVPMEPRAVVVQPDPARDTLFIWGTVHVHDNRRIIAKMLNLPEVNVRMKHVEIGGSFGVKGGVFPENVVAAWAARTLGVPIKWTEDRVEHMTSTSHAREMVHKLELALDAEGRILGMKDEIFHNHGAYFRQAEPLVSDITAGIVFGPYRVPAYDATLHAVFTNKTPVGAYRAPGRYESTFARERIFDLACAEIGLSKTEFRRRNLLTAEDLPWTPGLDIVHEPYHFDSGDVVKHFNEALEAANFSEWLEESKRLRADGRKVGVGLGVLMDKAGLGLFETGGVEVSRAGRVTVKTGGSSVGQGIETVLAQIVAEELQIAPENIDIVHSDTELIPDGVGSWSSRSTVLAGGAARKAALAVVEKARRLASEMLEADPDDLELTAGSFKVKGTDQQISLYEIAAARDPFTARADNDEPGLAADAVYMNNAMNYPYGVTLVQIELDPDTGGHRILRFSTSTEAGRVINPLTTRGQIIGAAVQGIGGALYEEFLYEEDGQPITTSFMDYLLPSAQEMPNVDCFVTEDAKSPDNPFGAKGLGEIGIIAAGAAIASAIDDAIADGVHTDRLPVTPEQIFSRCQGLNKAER
T2 sequence (O87682 2-160 partner): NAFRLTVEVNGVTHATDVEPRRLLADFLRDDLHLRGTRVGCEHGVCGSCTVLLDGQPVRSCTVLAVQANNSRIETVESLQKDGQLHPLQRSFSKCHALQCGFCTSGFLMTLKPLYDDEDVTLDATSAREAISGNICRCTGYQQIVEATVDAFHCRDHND

[3] = target: the molecule itself; assay: crystal structure; Kdh holoenzyme crystallised by hanging-drop vapor diffusion at 14 °C; 1% tryptone, 0.1 M Tris-HCl pH 8.0, 25% PEG 3350; space group P212121, two heterotrimers per asymmetric unit; 3.4 Å

Nc1ccn([C@@H]2O[C@H](COP(=O)(O)OP(=O)(O)OC[C@H]3O[C@H]4Nc5nc(N)[nH]c(=O)c5N[C@H]4C(S)=C3S)[C@@H](O)[C@H]2O)c(=O)n1 [MCD]
X-ray crystal structure, 3.4 Å [1]: the MCD cofactor is at the center of their intersection

Cc1cc2nc3c(=O)[nH]c(=O)nc-3n(C[C@H](O)[C@H](O)[C@H](O)COP(=O)(O)OP(=O)(O)OC[C@H]3O[C@@H](n4cnc5c(N)ncnc54)[C@H](O)[C@@H]3O)c2cc1C [FAD]
X-ray crystal structure, 3.4 Å [2]: the KdhM-bound FAD cofactor is relatively less restricted from the exterior

B1: Kdh holoenzyme (heterotrimer of KdhL, KdhM and KdhS) (complex, Arthrobacter nicotinovorans)
chain 1: MMAKAKALIPDNGRAGADEGNRQAWIGQEVLRREDRRLLTGTATFAGDLGVPGQLHMRIVRSTQAHARIVSIDATEAEKTPGVRMVITSEHTRHLGSVLLEELGYHEIYENIEDFSHPVLAVDKVLYVGQPVVAVLAVDPYLAEDAAELVSIEYEPLPVLLDPEEALTGKVELFPGRGNEGARIKKAYGDIDRAFAEAEHVIRHKYVTNRHSGVPMEPRAVVVQPDPARDTLFIWGTVHVHDNRRIIAKMLNLPEVNVRMKHVEIGGSFGVKGGVFPENVVAAWAARTLGVPIKWTEDRVEHMTSTSHAREMVHKLELALDAEGRILGMKDEIFHNHGAYFRQAEPLVSDITAGIVFGPYRVPAYDATLHAVFTNKTPVGAYRAPGRYESTFARERIFDLACAEIGLSKTEFRRRNLLTAEDLPWTPGLDIVHEPYHFDSGDVVKHFNEALEAANFSEWLEESKRLRADGRKVGVGLGVLMDKAGLGLFETGGVEVSRAGRVTVKTGGSSVGQGIETVLAQIVAEELQIAPENIDIVHSDTELIPDGVGSWSSRSTVLAGGAARKAALAVVEKARRLASEMLEADPDDLELTAGSFKVKGTDQQISLYEIAAARDPFTARADNDEPGLAADAVYMNNAMNYPYGVTLVQIELDPDTGGHRILRFSTSTEAGRVINPLTTRGQIIGAAVQGIGGALYEEFLYEEDGQPITTSFMDYLLPSAQEMPNVDCFVTEDAKSPDNPFGAKGLGEIGIIAAGAAIASAIDDAIADGVHTDRLPVTPEQIFSRCQGLN
chain 2: MKPPSFDYVVADSVEHALRLLADGGDDAKIIAGGQSLVPLLNFRMSRPSLLVDINRVPGLANIRKSDQTIAIGALTRHAKLTTSKTISQNLPILSEAAAWIAHPQIRNRGTIGGSLAHADAAAELPVVLLALDAYVTAQSLQGERKIPLKELLVSHFVSSILPGELIVEVNVPQLPHGSGAAFDEFSRRHGDYAIGGAASIVTLDEQGKCSRARITVLGGGSTAIRCQEAENILIDSTLSSHDIAAAAHAAVQGLDPVPTVHGSAQYRAQVIRTMVERTLAKALHRA
chain 3: MNAFRLTVEVNGVTHATDVEPRRLLADFLRDDLHLRGTRVGCEHGVCGSCTVLLDGQPVRSCTVLAVQANNSRIETVESLQKDGQLHPLQRSFSKCHALQCGFCTSGFLMTLKPLYDDEDVTLDATSAREAISGNICRCTGYQQIVEATVDAFHCRDHND
notes: KdhL, 87 kDa molybdopterin (MCD) subunit of Kdh, Arthrobacter nicotinovorans; KdhM, 32 kDa FAD subunit of Kdh, Arthrobacter nicotinovorans; contains 287 residues; KdhS, 17.6 kDa Fe2S2 subunit of Kdh, Arthrobacter nicotinovorans; has 160 residues; Heterotrimer with MCD, two Fe2S2 and FAD; two heterotrimers form the dimer seen in the crystal; also called ketone dehydrogenase; …
stoichiometry N [3]: 2
